Consider six compounds from PubChem BioAssay (NCI).

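1) Cells in 96-well plates. 2) Compound, 48 h, 5 concentrations. 3) Linear interpolation between surrounding doses. 4) Unreached endpoint = highest concentration. The concentration for 50% growth inhibition is given as GI50. TGI is the concentration that stops growth completely.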 Where only a bound is given, the exact number is not on record here.

Some test systems named below: OVCAR-5 ovarian; CAKI-1 renal; SNB-19 CNS; SN12C renal; OVCAR-8 ovarian; OVCAR-4 ovarian; SK-OV-3 ovarian; ACHN renal; K-562 leukemia; UO-31 renal.
Experiment in all cases: NCI tumour cell line growth inhibition, 48 h

Turning to `COc1cc([C@@H]2c3cc4c(cc3[C@@H](NC(=O)c3ccc(OC(C)=O)cc3)C3COC(=O)[C@@H]32)OCO4)cc(OC)c1O` (some centres not stated), the TGI with OVCAR-5 ovarian is 22.4 µM; in the assay on CAKI-1 renal, 15.8 µM; in the assay with SNB-19 CNS, over 100 µM; with SN12C renal it was 4.05 µM; with OVCAR-8 ovarian, 18.5 µM; in the assay on OVCAR-4 ovarian it was over 100 µM. For the same compound, the TGI was determined as 7.88 µM with SK-OV-3 ovarian, 3.16 µM in the assay on ACHN renal, 47.2 µM in the assay with K-562 leukemia and 30.6 µM in the assay on UO-31 renal.

As for `Cn1c(=O)c(-c2c(Cl)cccc2Cl)cc2cnc(Nc3ccc(I)cc3)nc21`, the GI50 with OVCAR-5 ovarian was 0.536 µM; in the assay with CAKI-1 renal, under 0.0247 µM; in the assay with SNB-19 CNS, 0.625 µM; in the assay on SN12C renal, 0.505 µM; in the assay on OVCAR-8 ovarian, 1.52 µM; in the assay on OVCAR-4 ovarian, 0.213 µM. Also, the GI50 in the assay on SK-OV-3 ovarian is 0.0734 µM; in the assay on K-562 leukemia, under 0.01 µM; in the assay on UO-31 renal, 2.44 µM. Also, the TGI in the assay with OVCAR-5 ovarian is 3.69 µM; with SNB-19 CNS it was over 100 µM; in the assay with SN12C renal it was 2.37 µM; in the assay on OVCAR-8 ovarian it was over 100 µM; in the assay on OVCAR-4 ovarian, 7.49 µM; in the assay with ACHN renal, 0.712 µM. Also, the TGI in the assay on K-562 leukemia is under 0.01 µM; with UO-31 renal, 8.28 µM.

Turning to `O=C(Nc1nc(-c2ccccc2Cl)cs1)c1cc(-c2ccc(Cl)cc2)nc2ccc(Cl)cc12`, the GI50 in the assay on OVCAR-5 ovarian is 23.1 µM; in the assay with CAKI-1 renal, 19.6 µM; with SNB-19 CNS, 3.79 µM; in the assay on SN12C renal it was 0.895 µM; in the assay on OVCAR-8 ovarian, 1.19 µM; with OVCAR-4 ovarian it was 9.92 µM. Besides, the GI50 with SK-OV-3 ovarian was 26 µM; with ACHN renal, 3.84 µM; with K-562 leukemia, 3.66 µM; in the assay on UO-31 renal, 2.46 µM. The TGI was over 100 µM in the assay on OVCAR-5 ovarian; over 100 µM in the assay with CAKI-1 renal; 67.2 µM in the assay with SNB-19 CNS; 76.9 µM with SN12C renal; 16.2 µM with OVCAR-8 ovarian; over 100 µM in the assay with OVCAR-4 ovarian. Further, the TGI in the assay on SK-OV-3 ovarian was over 100 µM; in the assay with ACHN renal, 78.2 µM; in the assay with K-562 leukemia, over 100 µM; in the assay with UO-31 renal, 52.6 µM.

`CS(=O)(=O)c1ccc(-c2cnc(NCc3ccco3)n3cnnc23)cc1`: the GI50 in the assay with OVCAR-5 ovarian, with CAKI-1 renal, in the assay on SNB-19 CNS, in the assay with SN12C renal, in the assay with OVCAR-8 ovarian and in the assay on OVCAR-4 ovarian was over 100 µM throughout. The GI50 in the assay with SK-OV-3 ovarian is over 100 µM; in the assay on ACHN renal, over 100 µM; in the assay on K-562 leukemia, 72.6 µM; in the assay on UO-31 renal, 38.8 µM. Moreover, the TGI with OVCAR-5 ovarian, with CAKI-1 renal, with SNB-19 CNS, in the assay with SN12C renal, with OVCAR-8 ovarian and with OVCAR-4 ovarian was over 100 µM in each case. Besides, the TGI with SK-OV-3 ovarian, in the assay on ACHN renal, in the assay with K-562 leukemia and in the assay with UO-31 renal was over 100 µM throughout.

For `O=C(O)CCCc1cc2c(s1)-c1cccc3cccc-2c13`, the TGI with OVCAR-5 ovarian is over 100 µM; in the assay with CAKI-1 renal, over 100 µM; in the assay with SNB-19 CNS it was over 100 µM; with SN12C renal, 80.4 µM; with OVCAR-8 ovarian, over 100 µM; with OVCAR-4 ovarian, over 100 µM. The TGI with SK-OV-3 ovarian was 75.4 µM; in the assay with ACHN renal, 76 µM; in the assay on K-562 leukemia, over 100 µM; in the assay on UO-31 renal, 43.4 µM.

Consider `COc1cc(=O)oc(/C=C/CO)c1C`, for which the TGI in the assay with OVCAR-5 ovarian, with CAKI-1 renal, in the assay on SNB-19 CNS, in the assay on SN12C renal, in the assay with OVCAR-8 ovarian and with OVCAR-4 ovarian was over 100 µM in each case. Further, the TGI with SK-OV-3 ovarian, in the assay on ACHN renal, in the assay on K-562 leukemia and in the assay on UO-31 renal was over 100 µM in each case.
